pIC50: −log10 of the molar value. Where “and” joins values, the source holds several entries; their conditions need not be identical. Equal values may be shown once. Read-outs that look alike come from different tables or passages of the source.
Legend:
hTRPML1∆NC-YFP [1] = target: hTRPML1∆NC-YFP (Homo sapiens, UniProt Q9GZU1); format: cell-based; details: for inhibitory effect on TRPML1: 12.5 µM compound, 5 µM ML-SA1, Fig. 1f; for TRPML1-inhibitory activity, SAR summary: random screening or consecutive experiments
hTRPML1∆NC-YFP (Homo sapiens, UniProt Q9GZU1), sequence (Q9GZU1 whole entry): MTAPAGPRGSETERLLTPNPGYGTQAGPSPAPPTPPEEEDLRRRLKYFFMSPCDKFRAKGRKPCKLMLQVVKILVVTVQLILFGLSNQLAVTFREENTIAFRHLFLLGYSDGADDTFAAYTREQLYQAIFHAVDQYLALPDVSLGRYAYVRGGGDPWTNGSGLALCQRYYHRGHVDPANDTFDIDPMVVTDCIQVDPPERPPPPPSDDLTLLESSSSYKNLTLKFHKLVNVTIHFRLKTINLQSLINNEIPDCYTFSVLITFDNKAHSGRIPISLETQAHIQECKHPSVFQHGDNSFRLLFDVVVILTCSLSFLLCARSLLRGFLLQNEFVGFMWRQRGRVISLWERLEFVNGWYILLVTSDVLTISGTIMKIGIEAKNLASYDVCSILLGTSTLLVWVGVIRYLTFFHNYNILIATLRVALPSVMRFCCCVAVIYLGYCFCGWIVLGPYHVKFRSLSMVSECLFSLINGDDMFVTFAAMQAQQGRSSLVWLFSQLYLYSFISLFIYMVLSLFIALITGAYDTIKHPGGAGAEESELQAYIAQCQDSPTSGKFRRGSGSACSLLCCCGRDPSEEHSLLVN
Description: (§1) To identify inhibitors of TRPML1 and TRPML3, the Spectrum Collection compound library (MS Discoveries; 2000 compounds) and additional 430 bioactive compounds were screened. To this end, fluorometric Ca^2+ influx assays were performed by using the calcium dye Fluo-4/AM (Invitrogen, Thermo Fisher Scientific, Waltham, MA, USA) and a custom-made fluorescence imaging plate reader built into a robotic liquid handling station (Freedom Evo 150, Tecan, Männedorf, Switzerland). […] Screening compounds dissolved in DMSO (10 mM) were prediluted in 150 mM NaCl, 20 mM HEPES, pH 7.4, to a concentration of 200 µM. For primary screens, HEK293 stably expressing plasma membrane-targeted TRPML1 or TRPML3 were trypsinized and resuspended in cell culture medium supplemented with 4 µM Fluo-4/AM. After incubation at 37 °C for 30 min, the cell suspension was briefly centrifuged resuspended in HBS, and dispensed into black pigmented, clear-bottom 384-well microwell plates (Greiner μClear, Frickenhausen, Germany). Plates were placed into the FLIPR and fluorescence signals (excitation 470 nm, emission 515 nm) were recorded with a Zyla 5.5 camera (Andor, Belfast, UK) and the μManager software like previously described. In a first video, compound libraries were successively added to the cells with the Tecan 96-tip multichannel arm to a final concentration of 20 µM to map unspecific effects like autofluorescence or toxicity. In a second step the agonist ML-SA1 was pipetted in each well and fluorescence signals were recorded for 10 min. Analyses were done by calculating fluorescence intensities for each well and background areas with ImageJ (National Institutes of Health, Bethesda, MD, USA). Finally, the background was subtracted and the fluorescence intensities were normalized to initial intensities (F/F0). Concentration response curves were generated by the same procedure but compounds were manually prediluted in 96-well plates containing HBS, now supplemented with 0.1% bovine serum albumin. Here data was fitted to a four-parameter Hill equation to obtain Imin, Imax, IC50), and the Hill coefficient n.

hTRPML3-YFP = target: T1, hTRPML3-YFP (Homo sapiens, UniProt Q8TDD5); assay: Fluo-4 Ca2+ influx assay, HEK293 stably expressing hTRPML3-YFP, activated with ML-SA1; format: cell-based; details: for inhibitory effect on TRPML3: 12.5 µM compound, 5 µM ML-SA1, Fig. 1f; for pIC50: Fluo-4, 5 µM ML-SA1, Table S1, read-out: TRPML3 IC50
T1 construct: expressed in transfected cells
T1 sequence (Q8TDD5 whole entry): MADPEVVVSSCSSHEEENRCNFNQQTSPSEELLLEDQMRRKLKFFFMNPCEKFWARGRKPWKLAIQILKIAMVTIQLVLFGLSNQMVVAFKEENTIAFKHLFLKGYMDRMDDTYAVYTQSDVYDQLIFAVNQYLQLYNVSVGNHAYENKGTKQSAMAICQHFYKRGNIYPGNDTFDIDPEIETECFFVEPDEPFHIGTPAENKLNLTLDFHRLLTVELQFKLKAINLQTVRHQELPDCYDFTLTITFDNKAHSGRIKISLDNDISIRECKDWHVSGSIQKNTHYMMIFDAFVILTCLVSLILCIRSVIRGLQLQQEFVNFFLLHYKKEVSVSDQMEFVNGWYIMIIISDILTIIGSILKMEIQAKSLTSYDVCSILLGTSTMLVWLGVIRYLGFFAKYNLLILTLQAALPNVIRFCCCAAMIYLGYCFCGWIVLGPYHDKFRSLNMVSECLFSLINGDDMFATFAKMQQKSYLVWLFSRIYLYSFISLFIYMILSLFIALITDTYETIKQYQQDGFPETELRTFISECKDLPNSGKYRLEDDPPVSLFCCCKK
Description: To identify inhibitors of TRPML1 and TRPML3, the Spectrum Collection compound library (MS Discoveries; 2000 compounds) and additional 430 bioactive compounds were screened. To this end, fluorometric Ca^2+ influx assays were performed by using the calcium dye Fluo-4/AM (Invitrogen, Thermo Fisher Scientific, Waltham, MA, USA) and a custom-made fluorescence imaging plate reader built into a robotic liquid handling station (Freedom Evo 150, Tecan, Männedorf, Switzerland). All measurements were done in a HEPES buffered solution (HBS), containing 132 mM NaCl, 6 mM KCl, 1 mM MgCl2, 1 mM CaCl2, 5.5 mM D-glucose, 10 mM HEPES, pH 7.4. Screening compounds dissolved in DMSO (10 mM) were prediluted in 150 mM NaCl, 20 mM HEPES, pH 7.4, to a concentration of 200 µM. For primary screens, HEK293 stably expressing plasma membrane-targeted TRPML1 or TRPML3 were trypsinized and resuspended in cell culture medium supplemented with 4 µM Fluo-4/AM. After incubation at 37 °C for 30 min, the cell suspension was briefly centrifuged resuspended in HBS, and dispensed into black pigmented, clear-bottom 384-well microwell plates (Greiner μClear, Frickenhausen, Germany). Plates were placed into the FLIPR and fluorescence signals (excitation 470 nm, emission 515 nm) were recorded with a Zyla 5.5 camera (Andor, Belfast, UK) and the μManager software like previously described. In a first video, compound libraries were successively added to the cells with the Tecan 96-tip multichannel arm to a final concentration of 20 µM to map unspecific effects like autofluorescence or toxicity. In a second step the agonist ML-SA1 was pipetted in each well and fluorescence signals were recorded for 10 min. Analyses were done by calculating fluorescence intensities for each well and background areas with ImageJ (National Institutes of Health, Bethesda, MD, USA). Finally, the background was subtracted and the fluorescence intensities were normalized to initial intensities (F/F0). Concentration response curves were generated by the same procedure but compounds were manually prediluted in 96-well plates containing HBS, now supplemented with 0.1% bovine serum albumin. Here data was fitted to a four-parameter Hill equation to obtain Imin, Imax, IC50), and the Hill coefficient n.

hTRPML1∆NC-YFP [2] = format: cell-based, human; details: for primary screen result: 20 µM compound, 5 µM ML-SA1, TRPML1 and TRPML3; for TRPML1 versus TRPML3 selectivity: Fluo-4, TRPML1 vs TRPML3, 5 µM ML-SA1; for TRPML1:TRPML2 fold selectivity / TRPML1:TRPML3 fold selectivity: ratio of Fluo-4 IC50 values
Description: as §1

hTRPML2-YFP = target: T2, hTRPML2-YFP (Homo sapiens, UniProt Q8IZK6); assay: Fluo-4 Ca2+ influx assay, HEK293 stably expressing hTRPML2-YFP, activated with ML-SA1; format: cell-based; details: TRPML2 IC50, Fluo-4, 5 µM ML-SA1, Table S1
T2 construct: expressed in transfected cells
T2 sequence (Q8IZK6 1-566): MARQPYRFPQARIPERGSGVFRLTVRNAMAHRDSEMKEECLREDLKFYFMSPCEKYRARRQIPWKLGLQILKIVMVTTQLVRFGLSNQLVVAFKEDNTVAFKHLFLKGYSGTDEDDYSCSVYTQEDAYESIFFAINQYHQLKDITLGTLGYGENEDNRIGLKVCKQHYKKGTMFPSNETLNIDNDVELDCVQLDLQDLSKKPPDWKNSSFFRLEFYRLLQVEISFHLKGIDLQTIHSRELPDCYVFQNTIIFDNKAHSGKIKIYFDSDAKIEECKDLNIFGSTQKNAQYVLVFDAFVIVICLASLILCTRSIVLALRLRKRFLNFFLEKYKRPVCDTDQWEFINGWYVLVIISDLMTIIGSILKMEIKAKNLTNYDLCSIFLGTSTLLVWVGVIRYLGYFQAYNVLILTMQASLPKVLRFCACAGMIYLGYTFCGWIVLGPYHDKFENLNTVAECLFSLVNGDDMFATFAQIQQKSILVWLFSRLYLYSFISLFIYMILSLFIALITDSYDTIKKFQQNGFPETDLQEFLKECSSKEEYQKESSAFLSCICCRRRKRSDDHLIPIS

[3] = read-out: TRPML1 IC50, concentration-response retest of screening hits and steroids, Fluo-4, 5 µM ML-SA1, Fig. 1b-e, S1
[4] = read-out: TRPML1 IC50, Fluo-4, 5 µM ML-SA1, Fig. 2a/4, Table S1

SMILES	inhibitory effect on TRPML1 (hTRPML1∆NC-YFP [1])	inhibitory effect on TRPML3 (hTRPML3-YFP)	TRPML1:TRPML2 fold selectivity (hTRPML1∆NC-YFP [2])	TRPML1:TRPML3 fold selectivity (hTRPML1∆NC-YFP [2])	pIC50 (hTRPML1∆NC-YFP [1]; [4])	pIC50 (hTRPML3-YFP)	pIC50 (hTRPML2-YFP)	other results
C#CC1(O)CC[C@H]2[C@@H]3CCC4=CC(=O)CC[C@@H]4[C@H]3CC[C@@]21CC (mixture of isomers) [norgestrel, reference compound]	no effect	no effect						
CC(=O)O[C@@H]1C=C[C@]2(C)C(C[C@@H](OC(C)=O)[C@]3(C)C4=CC(=O)O[C@H](c5ccoc5)[C@@]4(C)CCC23)C1(C)C (stereo partly drawn) [DGA, deoxygedunol acetate, reference compound]								primary screen result (hTRPML1∆NC-YFP [2]): TRPML1 selective hit
C=C1C[C@H]2[C@@H]3C=C(C)C4=CC(=O)CC[C@]4(C)[C@H]3CC[C@]2(C)[C@@]1(OC(C)=O)C(C)=O [MGA, melengestrol acetate, reference compound]								primary screen result (hTRPML1∆NC-YFP [2]): TRPML1 selective hit; TRPML1 versus TRPML3 selectivity (hTRPML1∆NC-YFP [2]): highly TRPML1-selective; pIC50 (hTRPML1∆NC-YFP [1]; [3]): 4.72 and 4.73
C[C@]12CC[C@@H]3c4ccc(OC(F)F)cc4CC[C@H]3[C@@H]1CC[C@@H]2O [PRU-4]			10.25 fold	9.37 fold	6.30	5.32	5.28	
CCOc1ccc2c(c1)CC[C@@H]1[C@@H]2CC[C@]2(C)[C@@H](O)CC[C@@H]12 [PRU-5]			4.45 fold	19.58 fold	6.10	4.83	5.47	
CC(C)Oc1ccc2c(c1)CC[C@@H]1[C@@H]2CC[C@]2(C)[C@@H](O)CC[C@@H]12 [PRU-6]			8.71 fold	19.2 fold	6.39	5.10	5.45	
C=CCOc1ccc2c(c1)CC[C@@H]1[C@@H]2CC[C@]2(C)[C@@H](O)CC[C@@H]12 [PRU-7]			3.62 fold	20.82 fold	6.14	4.82	5.58	
C[C@]12CC[C@@H]3c4ccc(OS(=O)(=O)C(F)(F)F)cc4CC[C@H]3[C@@H]1CC[C@@H]2O [PRU-9]			14.88 fold	35.06 fold	6.77	5.22	5.60	TRPML isoform selectivity profile (hTRPML1∆NC-YFP [2]; TRPML1, 2, 3 and TPC2, Fluo-4): further improved selectivity profile compared to EDME
C[C@]12CC[C@@H]3c4ccc(-c5ccccc5)cc4CC[C@H]3[C@@H]1CC[C@@H]2O [PRU-11]			5.45 fold	72.98 fold	6.36	4.49	5.62	
O=C(O)CCCCCCCCCCCC[C@@H]1C=CCC1 [chaulmoorgic acid, reference compound]								primary screen result (hTRPML1∆NC-YFP [2]): TRPML1 selective hit
CC(C)CCC[C@@H](C)[C@H]1CC[C@H]2[C@@H]3CC=C4C[C@@H](O)CC[C@]4(C)[C@H]3CC[C@]12C [cholesterol, reference compound]	no effect	no effect						
C[C@]12CCC3c4ccc(OS(=O)(=O)[O-])cc4CCC3C1CC[C@H]2O.[Na+] (stereo partly drawn) [estradiol-3-sulfate sodium salt, reference compound]								TRPML1-inhibitory activity, SAR summary (hTRPML1∆NC-YFP [1]): eliminated TRPML1-inhibitory activity
COc1ccc2c(c1)CC[C@@H]1[C@@H]2CC[C@]2(C)C(=O)CC[C@@H]12 [estrone 3-methyl ether, reference compound]	no effect	no effect						
C[C@]12CC[C@@H]3c4ccc(O)cc4CC[C@H]3[C@@H]1CCC2=O [estrone, reference compound]	no effect	no effect						
C#C[C@]1(O)CC[C@H]2[C@@H]3CCc4cc(O)ccc4[C@H]3CC[C@@]21C [ethinylestradiol, reference compound]								TRPML1 versus TRPML3 selectivity (hTRPML1∆NC-YFP [2]): stronger inhibitory effects on TRPML1 than on TRPML3; TRPML1-inhibitory activity, SAR summary (hTRPML1∆NC-YFP [1]): only weakly active
C[C@]12CC[C@@H]3c4ccc(O)cc4C[C@@H](CCCCCCCCC[S+]([O-])CCCC(F)(F)C(F)(F)F)[C@H]3[C@@H]1CC[C@@H]2O (stereo partly drawn) [fulvestrant, reference compound]	no effect	no effect						
C[C@]12CCC(=O)C=C1CC[C@@H]1[C@@H]2[C@@H](O)C[C@@]2(C)[C@H]1CC[C@]2(O)C(=O)CO [hydrocortisone, reference compound]	no effect	no effect						
C#C[C@]1(O)CC[C@H]2[C@@H]3CCc4cc(OC)ccc4[C@H]3CC[C@@]21C [mestranol, reference compound]	strongest effect							TRPML1 versus TRPML3 selectivity (hTRPML1∆NC-YFP [2]): stronger inhibitory effects on TRPML1 than on TRPML3; TRPML1-inhibitory activity, SAR summary (hTRPML1∆NC-YFP [1]): considerable activity
CC(=O)[C@H]1CC[C@H]2[C@@H]3CCC4=CC(=O)CC[C@]4(C)[C@H]3CC[C@]12C [progesterone, reference compound]	much weaker inhibitory effects							pIC50 (hTRPML1∆NC-YFP [1]; [3]): 4.92
C[C@]12CC[C@H]3[C@@H](CCC4=CC(=O)CC[C@@]43C)[C@@H]1CC[C@@H]2O [testosterone, reference compound]	much weaker inhibitory effects							

From PMC8050276, “Estradiol analogs attenuate autophagy, cell migration and invasion by direct and selective inhibition of TRPML1, independent of estrogen receptors” (Scientific Reports, 2021)
